{"source": "patent US11939361B2", "about": "“Compositions of peptide inhibitors of Interleukin-23 receptor” (Janssen Pharmaceutica NV, priority 2020, dated 2024)", "key": {"[1]": {"test": "Solubility of acetate form of SEQ ID NO: 1 in various media", "format": "physicochemical", "experimental": "An acetate form of SEQ ID NO: 1 prepared according to Example 1 was evaluated for solubility under various conditions."}, "[2]": {"test": "Rat PK Study 2: effect of NaC10 concentration, IC injection", "format": "in vivo, rats", "details": "peptide 10 mg/Kg", "description": "In this example, the effect of the concentration of NaCl0 was studied."}, "[3]": {"test_system": "IL-23-induced IL-17A secretion", "test": "In vitro rat whole blood assay of IL-23-induced IL-17A secretion", "format": "cell-based", "details": "as quoted in Example 12"}, "[4]": {"test": "Storage of phosphate buffered solution", "format": "physicochemical", "details": "0.33-33 mg/mL in 50 mM sodium phosphate buffer, 2-8° C.", "experimental": "The resultant solution can be stored at 2-8° C. for up to 4 weeks."}, "[5]": {"test": "Dog PK Study: single PO dose of tablets/solution", "details": "peptide 10 mg/Kg, NaC10 50 mg/Kg", "method": "Poloxamer P188 was also assessed, in combination with NaCl0 with the aim of determining potential synergism. […] Control tablet cores (immediate-release) without the absorption enhancers were also manufactured and dosed as control in the study.\nFollowing dosing of tablets, 10 mL additional water was given. The normal dry diet was returned 2 hours post-dose."}}, "note": "pIC50: −log10 of the molar value."}
{"molecule": "CC(=O)NCCCC[C@@H]1NC(=O)[C@H](Cc2c[nH]c3c(C)cccc23)NC(=O)[C@H]([C@@H](C)O)NC(=O)[C@H](CC(N)=O)NC(=O)[C@@H](NC(C)=O)C(C)(C)SSC(C)(C)[C@@H](C(=O)N[C@@H](Cc2ccc(OCCN)cc2)C(=O)N[C@@H](Cc2ccc3ccccc3c2)C(=O)NC2(C(=O)N[C@@H](CCC(=O)O)C(=O)N[C@@H](CC(N)=O)C(=O)N[C@@H](Cc3cccnc3)C(=O)N(C)CC(N)=O)CCOCC2)NC1=O", "note": "[Acetate Form of SEQ ID NO: 1]", "values": [{"measurement": "solubility", "setting": "[1]; 0.01 N HCl, aqueous buffer", "result": 95, "unit": "mg/mL"}, {"measurement": "solubility", "setting": "[1]; 0.1 N HCl, aqueous buffer", "result": 780, "unit": "mg/mL"}, {"measurement": "solubility", "setting": "[1]; 0.1 N NaOH, aqueous buffer", "result": "> 870", "unit": "mg/mL"}, {"measurement": "solubility", "setting": "[1]; aqueous buffer, Borate buffer pH 9", "result": "> 220", "unit": "mg/mL"}, {"measurement": "solubility", "setting": "[1]; aqueous buffer, Citrate buffer pH 2", "result": 270, "unit": "mg/mL"}, {"measurement": "solubility", "setting": "[1]; aqueous buffer, Citrate buffer pH 5", "result": 6.9, "unit": "mg/mL"}, {"measurement": "solubility", "setting": "[1]; aqueous buffer, Phosphate buffer pH 12", "result": "> 440", "unit": "mg/mL"}, {"measurement": "solubility", "setting": "[1]; aqueous buffer, phosphate buffer pH 7", "result": 7.5, "unit": "mg/mL"}, {"measurement": "solubility", "setting": "[1]; water", "result": 35, "unit": "mg/mL"}, {"measurement": "increase of systemic exposure given by NaC10", "setting": "[2]; NaC10 20 mg/Kg", "result": "minimal"}, {"measurement": "absorption enhancement by NaC10", "setting": "[2]; NaC10 50 mg/Kg", "result": "highest absorption enhancement"}, {"measurement": "oral bioavailability on increasing NaC10", "setting": "[2]; NaC10 100 mg/Kg or 200 mg/Kg", "result": "did not further increase"}, {"measurement": "effect of NaC10 on systemic exposure", "setting": "[2]; all NaC10 concentrations tested (20, 50, 200 mg/Kg)", "result": "increased"}, {"measurement": "IC50 values presented in Table 14", "setting": "[3]", "result": "0.10 to 0.47", "unit": "ng/mL"}, {"measurement": "pIC50", "setting": "[3]; read-out: IC50 values presented in Table 14", "result": "9.30 to 10.27"}, {"measurement": "Storage time of solution", "setting": "[4]", "result": "up to 4 weeks"}, {"measurement": "effect of NaC10 on systemic exposure, all tablets", "setting": "[5]", "result": "increased"}]}
